Reference: PubChem BioAssay (NCI)
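Briefly, cells in 96-well plates were exposed to five compound concentrations for 48 h, and endpoints were estimated by linear interpolation. TGI marks complete inhibition of growth.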

Experiments:
Assay in all cases: NCI tumour cell line growth inhibition, 48 h
[1] = tested on: CAKI-1 renal
[2] = tested on: CCRF-CEM leukemia
[3] = tested on: HCT-116 colon
[4] = tested on: HS 578T breast
[5] = tested on: HT29 colon
[6] = tested on: KM12 colon
[7] = tested on: MDA-MB-435
[8] = tested on: MDA-N
[9] = tested on: NCI-H226 lung
[10] = tested on: PC-3 prostate
[11] = tested on: SF-268 CNS
[12] = tested on: SF-295 CNS
[13] = tested on: SK-MEL-2 melanoma
[14] = tested on: SK-OV-3 ovarian
[15] = tested on: SN12C renal
[16] = tested on: SR leukemia
[17] = tested on: T-47D breast
[18] = tested on: HCC-2998 colon
[19] = tested on: MALME-3M melanoma
[20] = tested on: RXF 393 renal

SMILES | TGI [1] | TGI [2] | TGI [3] | TGI [4] | TGI [5] | TGI [6] | TGI [7] | TGI [8] | TGI [9] | TGI [10] | TGI [11] | TGI [12] | TGI [13] | TGI [14] | TGI [15] | TGI [16] | TGI [17] | TGI [18] | TGI [19] | TGI [20]
O=C(OC[C@H]1C[C@H]2C(=O)CCC[C@H]2O1)c1ccccc1 | > 100 µM | > 100 µM | > 100 µM | > 100 µM | > 100 µM | > 100 µM | > 100 µM | > 100 µM | > 100 µM | > 100 µM | > 100 µM | > 100 µM | > 100 µM | > 100 µM | > 100 µM | > 100 µM | > 100 µM | – | – | –
Cc1ccc(Nc2[nH]c(=O)[nH]c(=O)c2C)cc1Cl | > 100 µM | – | > 100 µM | > 100 µM | > 100 µM | > 100 µM | > 100 µM | > 100 µM | > 100 µM | > 100 µM | > 100 µM | 72.3 µM | > 100 µM | > 100 µM | > 100 µM | – | > 100 µM | > 100 µM | > 100 µM | > 100 µM
C[n+]1c2ccccc2n2c3ccccc3c(NCCc3ccccn3)c(C#N)c21 | 6.68 µM | 9.11 µM | 11.8 µM | 12.1 µM | > 100 µM | 29 µM | 4 µM | 4.87 µM | 16.6 µM | 23.9 µM | > 22.4 µM | 15.9 µM | 7.73 µM | 17.8 µM | – | – | 13.7 µM | 1.24 µM | 12 µM | 4.62 µM
CCC/C(Cl)=N\OC(=O)Nc1cccc(C(F)(F)F)c1 | 33.1 µM | 5.67 µM | 34.9 µM | 70.2 µM | 50.3 µM | 33.3 µM | – | 31.9 µM | 37.8 µM | 31.6 µM | 67.8 µM | 19.5 µM | 31.4 µM | 18 µM | 29.7 µM | 5.93 µM | 55.3 µM | 33.4 µM | 26.4 µM | 33.8 µM
Cc1nc2c(cc1C(=O)N/N=C/c1ccc([N+](=O)[O-])cc1)c(=O)n(C)c(=O)n2C | > 100 µM | > 100 µM | > 100 µM | 86.6 µM | > 100 µM | > 100 µM | > 100 µM | > 100 µM | > 100 µM | > 100 µM | > 100 µM | > 100 µM | > 100 µM | > 100 µM | > 100 µM | – | > 100 µM | > 100 µM | > 100 µM | 65 µM
COC(=O)[C@@]1(Cc2ccc(O)cc2)C[C@@H]2Cc3ccccc3N2N1 | > 100 µM | – | > 100 µM | > 100 µM | > 100 µM | > 100 µM | > 100 µM | > 100 µM | > 100 µM | > 100 µM | > 100 µM | > 100 µM | 92.8 µM | > 100 µM | > 100 µM | > 100 µM | > 100 µM | – | > 100 µM | –
COc1cc2c(cc1OC)CN1CCCc3cc(OC)c(OC)cc3C1C2 (stereo not given) | > 100 µM | > 100 µM | > 100 µM | > 100 µM | 61.7 µM | > 100 µM | 47.5 µM | 42.4 µM | 96.1 µM | > 100 µM | > 100 µM | > 100 µM | – | > 100 µM | > 100 µM | – | > 100 µM | > 100 µM | > 100 µM | 94.4 µM
CC(C)(C)OC(=O)NCCC(=O)NC1(c2cc3ccccc3s2)CCCCC1 | 48.6 µM | 27.5 µM | 27 µM | 48.8 µM | 29.7 µM | 33.5 µM | 33.1 µM | 34.2 µM | 42.4 µM | 37 µM | – | 36.5 µM | 44.9 µM | 60.1 µM | 34.3 µM | – | 33.3 µM | 47.5 µM | 37.5 µM | 26.2 µM
Cc1ccc(S(=O)(=O)N2c3ccccc3[C@H]3CCC=C[C@H]32)cc1 | > 100 µM | > 87.2 µM | 19.6 µM | 86.3 µM | 19.2 µM | 45.7 µM | – | > 100 µM | 47.3 µM | > 100 µM | > 76.1 µM | 32.4 µM | 39.2 µM | 28.6 µM | > 63.1 µM | 65.2 µM | > 100 µM | > 76.5 µM | 39 µM | 19 µM
O=C(O)CC1NC(/C(=C/c2ccccc2O)NC(=O)c2ccccc2)OC1=O (stereo not given) | > 100 µM | > 100 µM | > 100 µM | > 100 µM | > 100 µM | > 100 µM | > 100 µM | > 100 µM | > 79.5 µM | > 100 µM | > 45.1 µM | > 95.7 µM | > 100 µM | > 100 µM | > 100 µM | – | > 100 µM | > 100 µM | > 100 µM | 99.2 µM
COc1ccc(/C=C/C(=N/NC(=O)N/N=C(/C=C/c2ccc(OC)cc2)C(C)(C)CN2CCCCC2)C(C)(C)CN2CCCCC2)cc1 | 4.33 µM | 3.39 µM | 2.6 µM | 4.28 µM | 3.11 µM | 3.27 µM | – | 3.06 µM | 3.02 µM | 6.62 µM | – | 3.45 µM | 3.1 µM | 3.49 µM | 5.83 µM | 0.679 µM | 4.1 µM | 3.42 µM | 3.42 µM | 2.72 µM
O=c1c2ccccc2nc2n1C(c1ccc([N+](=O)[O-])cc1)C2(c1ccccc1)c1ccccc1 (stereo not given) | > 100 µM | > 100 µM | > 100 µM | > 100 µM | > 100 µM | > 100 µM | > 100 µM | > 100 µM | – | > 100 µM | > 100 µM | > 100 µM | > 100 µM | > 100 µM | > 100 µM | – | > 100 µM | – | > 100 µM | > 100 µM
COC(=O)c1ccc(NCc2c(O)ccc(O)c2Br)cc1Cl | 29.9 µM | > 100 µM | 33.3 µM | 95.4 µM | 40.2 µM | 31 µM | 26.5 µM | 26 µM | > 100 µM | 44 µM | 41.2 µM | 35 µM | 40.8 µM | > 100 µM | 25.7 µM | – | 43.3 µM | 39.4 µM | 33.2 µM | –
CCOC(=O)/C(N=Nc1ccc(-n2c(C)nc3ccc(Br)cc3c2=O)cc1)=C(/C)O | > 100 µM | > 100 µM | > 100 µM | 70.7 µM | > 100 µM | > 100 µM | > 100 µM | > 100 µM | > 100 µM | > 100 µM | > 100 µM | > 100 µM | > 100 µM | > 100 µM | > 100 µM | > 100 µM | > 100 µM | – | – | –
COC(=O)C(Cc1ccccc1)NP(=O)(O)OCC1OC(n2cc(I)c(=O)[nH]c2=O)CC1O (stereo not given) | > 100 µM | > 100 µM | > 100 µM | > 100 µM | > 100 µM | > 100 µM | > 100 µM | > 100 µM | > 100 µM | > 100 µM | > 100 µM | > 100 µM | – | > 100 µM | > 100 µM | > 100 µM | > 100 µM | – | > 100 µM | –
Nn1c(CCCCCCCCc2nnc(COc3ccccc3)n2N)nnc1COc1ccccc1 | > 100 µM | – | > 100 µM | > 100 µM | > 100 µM | > 100 µM | > 100 µM | > 100 µM | > 100 µM | > 100 µM | > 100 µM | > 100 µM | > 100 µM | > 100 µM | > 100 µM | – | > 100 µM | > 100 µM | > 100 µM | > 100 µM
COC1(OC)N=C(N)C2(C#N)C3(C(=O)N(C(C)C)N=C3C)C12C#N (stereo not given) | > 100 µM | > 100 µM | > 100 µM | – | > 100 µM | > 100 µM | > 100 µM | > 100 µM | > 100 µM | > 100 µM | > 100 µM | > 100 µM | > 100 µM | > 100 µM | > 100 µM | > 100 µM | > 100 µM | > 100 µM | > 100 µM | > 100 µM
N#CCCN(CCC#N)c1ccc(C(N=Nc2ccccc2)=Nc2ccc(Cl)cc2)cc1 | > 100 µM | > 100 µM | > 100 µM | > 100 µM | > 100 µM | > 100 µM | > 100 µM | > 100 µM | > 100 µM | > 100 µM | > 100 µM | > 100 µM | – | > 100 µM | > 100 µM | – | > 100 µM | > 100 µM | – | > 100 µM
CC(C)OP(=O)(OC(C)C)c1ccc2c(c1)OCCOCCOCCOCCO2 | > 100 µM | > 100 µM | > 100 µM | > 100 µM | > 100 µM | > 100 µM | > 100 µM | > 100 µM | > 100 µM | > 100 µM | > 100 µM | > 100 µM | – | > 100 µM | > 100 µM | > 100 µM | > 100 µM | > 100 µM | > 100 µM | –
COc1cc(OC)c2c(=O)c(OC)c(-c3ccc4c(c3)OCO4)oc2c1OC | > 100 µM | 83.5 µM | > 100 µM | > 100 µM | > 100 µM | > 100 µM | > 100 µM | > 100 µM | > 100 µM | > 100 µM | > 100 µM | > 100 µM | > 100 µM | > 100 µM | > 100 µM | – | > 100 µM | > 100 µM | > 100 µM | > 100 µM
